Residue numbers refer to the chain shown, from its start. Where a SMILES comes first, the peptide text is derived from it. Bridges are numbered along the chain shown (N, C = ends).
Legend:
Assay in all cases: cAMP accumulation
Assay type in all cases: cell-based
Conditions in all cases: mean ± S.E.M.; for Emax: cAMP maximal response, SEM; for EC50: cAMP, CV1-FlpIn cells, 30 min, IBMX
[1] = target: T1, hCTR I371A (Homo sapiens, UniProt P30988, I371A)
T1 construct: c-Myc (N); expressed in transfected cells
T1 sequence (P30988 25-474 I371A): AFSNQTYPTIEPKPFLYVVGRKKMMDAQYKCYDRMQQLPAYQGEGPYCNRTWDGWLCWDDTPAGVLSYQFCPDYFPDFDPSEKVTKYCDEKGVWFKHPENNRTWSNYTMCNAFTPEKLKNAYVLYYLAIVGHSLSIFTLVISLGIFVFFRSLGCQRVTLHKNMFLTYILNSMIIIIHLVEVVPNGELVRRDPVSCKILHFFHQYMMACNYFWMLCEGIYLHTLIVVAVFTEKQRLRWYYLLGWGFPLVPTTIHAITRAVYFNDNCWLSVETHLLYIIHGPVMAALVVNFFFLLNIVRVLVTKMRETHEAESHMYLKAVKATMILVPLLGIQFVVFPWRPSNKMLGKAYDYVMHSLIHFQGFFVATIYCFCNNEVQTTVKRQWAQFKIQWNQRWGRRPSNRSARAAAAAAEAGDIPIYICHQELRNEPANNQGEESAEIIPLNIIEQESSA
Procedure: (§1) Cells (2.5 × 10^4 cells/well) were seeded into 96-well plates and incubated overnight. Cells were stimulated with increasing concentrations of ligands for 30 min in the presence of IBMX. The liquid was discarded, changed to absolute ethanol and volatilized to dryness at room temperature. […] Data were normalized to the response of 100 μM forskolin.
(§2) Data were corrected for radioligand occupancy using the Cheng-Prusoff equation in Prism; as such data are reported as pKi. Emax and EC50 were estimated from concentration-response curves using with a 3-parameter logistic equation in Prism (v7). These values are a composite of functional affinity, efficacy and stimulus response coupling. […] Significance was accepted at P < 0.05.

[2] = target: T2, hCTR S364A (Homo sapiens, UniProt P30988, S364A)
T2 construct: c-Myc (N); expressed in transfected cells
T2 sequence (P30988 25-474 S364A): T1 sequence (P30988 25-474 I371A) with S340A, A347I
Procedure: as §1, §2

[3] = target: T3, hCTR T280A (Homo sapiens, UniProt P30988, T280A)
T3 construct: expressed in transfected cells
T3 sequence (P30988 25-474 T280A): T1 sequence (P30988 25-474 I371A) with T256A, A347I
Procedure: as §1, §2

[4] = target: T4, hCTR V283A (Homo sapiens, UniProt P30988, V283A)
T4 construct: expressed in transfected cells
T4 sequence (P30988 25-474 V283A): T1 sequence (P30988 25-474 I371A) with V259A, A347I
Procedure: as §1, §2

[5] = target: T5, hCTR V293A (Homo sapiens, UniProt P30988, V293A)
T5 construct: c-Myc (N); expressed in transfected cells
T5 sequence (P30988 25-474 V293A): T1 sequence (P30988 25-474 I371A) with V269A, A347I
Procedure: as §1, §2

| Compound | Emax [1] | EC50 [1] | Emax [2] | EC50 [2] | Emax [3] | EC50 [3] | Emax [4] | EC50 [4] | Emax [5] | EC50 [5] |
| --- | --- | --- | --- | --- | --- | --- | --- | --- | --- | --- |
| CC(C)C[C@H](NC(=O)CNC(=O)[C@H](C)NC(=O)[C@H](CC(C)C)NC(=O)[C@H](CCCNC(=N)N)NC(=O)[C@H](Cc1cnc[nH]1)NC(=O)[C@@H](NC(=O)[C@@H](NC(=O)[C@@H]1CSSC[C@H](NC(=O)[C@H](C)N)C(=O)N[C@@H](CC(=O)O)C(=O)N[C@@H]([C@@H](C)O)C(=O)N[C@@H](C)C(=O)N[C@@H]([C@@H](C)O)C(=O)N1)C(C)C)[C@@H](C)O)C(=O)N[C@@H](CC(C)C)C(=O)N[C@@H](CO)C(=O)N[C@@H](CCCNC(=N)N)C(=O)N[C@@H](CO)C(=O)NCC(=O)NCC(=O)N[C@H](C(=O)N[C@H](C(=O)N[C@@H](CCCCN)C(=O)N[C@@H](CC(N)=O)C(=O)N[C@@H](CC(N)=O)C(=O)N[C@@H](Cc1ccccc1)C(=O)N[C@H](C(=O)N1CCC[C@H]1C(=O)N[C@H](C(=O)N[C@@H](CC(N)=O)C(=O)N[C@H](C(=O)NCC(=O)N[C@@H](CO)C(=O)N[C@@H](CCCCN)C(=O)N[C@@H](C)C(=O)N[C@@H](Cc1ccccc1)C(N)=O)C(C)C)[C@@H](C)O)C(C)C)C(C)C)C(C)C [hαCGRP] | 58 ± 15% | 132 nM | 83 ± 10% | 16.6 nM | 107 ± 21% | 3.31 nM | 130 ± 19% | 12.9 nM | 153 ± 17% | 8.71 nM |
| CC[C@H](C)[C@H](NC(=O)[C@H](C)NC(=O)[C@@H](NC(=O)[C@H](CCC(N)=O)NC(=O)[C@@H]1CCCN1C(=O)[C@H](Cc1ccccc1)NC(=O)[C@@H](NC(=O)[C@H](Cc1c[nH]cn1)NC(=O)[C@H](Cc1ccccc1)NC(=O)[C@H](CCCCN)NC(=O)[C@H](CC(N)=O)NC(=O)[C@H](Cc1ccccc1)NC(=O)[C@H](CC(=O)O)NC(=O)[C@H](CCC(N)=O)NC(=O)[C@@H](NC(=O)[C@H](Cc1ccc(O)cc1)NC(=O)[C@@H](NC(=O)CNC(=O)[C@H](CC(C)C)NC(=O)[C@H](CCSC)NC(=O)[C@@H]1CSSC[C@H](N)C(=O)NCC(=O)N[C@@H](CC(N)=O)C(=O)N[C@@H](CC(C)C)C(=O)N[C@@H](CO)C(=O)N[C@@H]([C@@H](C)O)C(=O)N1)[C@@H](C)O)[C@@H](C)O)[C@@H](C)O)[C@@H](C)O)C(=O)NCC(=O)N[C@H](C(=O)NCC(=O)N[C@@H](C)C(=O)N1CCC[C@H]1C(N)=O)C(C)C [hCT] | 24 ± 2.7% | – | 97 ± 9% | – | 97 ± 6% | – | 90 ± 7% | – | 123 ± 8% | – |
| CC(C)C[C@H](NC(=O)[C@H](CC(N)=O)NC(=O)[C@H](CC(N)=O)NC(=O)[C@H](CO)NC(=O)[C@H](CO)NC(=O)[C@H](CCCNC(=N)N)NC(=O)[C@@H](NC(=O)[C@H](CC(C)C)NC(=O)[C@H](Cc1ccccc1)NC(=O)[C@H](CC(N)=O)NC(=O)[C@H](C)NC(=O)[C@H](CC(C)C)NC(=O)[C@H](CCCNC(=N)N)NC(=O)[C@H](CCC(N)=O)NC(=O)[C@@H](NC(=O)[C@H](C)NC(=O)[C@@H]1CSSC[C@H](NC(=O)[C@@H](N)CCCCN)C(=O)N[C@@H](CC(N)=O)C(=O)N[C@@H]([C@@H](C)O)C(=O)N[C@@H](C)C(=O)N[C@@H]([C@@H](C)O)C(=O)N1)[C@@H](C)O)C(C)C)C(=O)NCC(=O)N1CCC[C@H]1C(=O)N[C@H](C(=O)N[C@@H](CC(C)C)C(=O)N1CCC[C@H]1C(=O)N1CCC[C@H]1C(=O)N[C@H](C(=O)N[C@@H](CC(N)=O)C(=O)N[C@H](C(=O)NCC(=O)N[C@@H](CO)C(=O)N[C@@H](CC(N)=O)C(=O)N[C@H](C(=O)N[C@@H](Cc1ccc(O)cc1)C(N)=O)[C@@H](C)O)C(C)C)[C@@H](C)O)C(C)C [rAmy] | 47 ± 7% | – | 56 ± 7% | – | 69 ± 8% | – | 77 ± 10% | – | 91 ± 10% | – |
| CSCC[C@H](NC(=O)CNC(=O)[C@H](CO)NC(=O)[C@H](Cc1ccccc1)NC(=O)[C@H](CCCNC(=N)N)NC(=O)[C@H](Cc1c[nH]cn1)NC(=O)[C@H](Cc1ccccc1)NC(=O)[C@H](CC(N)=O)NC(=O)[C@H](CC(N)=O)NC(=O)[C@H](CC(C)C)NC(=O)[C@H](CC(N)=O)NC(=O)[C@H](CCCNC(=N)N)NC(=O)[C@H](Cc1c[nH]c2ccccc12)NC(=O)[C@H](Cc1ccc(O)cc1)NC(=O)[C@H](C)NC(=O)[C@H](CO)NC(=O)[C@H](CC(C)C)NC(=O)[C@@H](NC(=O)[C@@H]1CSSC[C@H](N)C(=O)N[C@@H](CO)C(=O)N[C@@H](CC(N)=O)C(=O)N[C@@H](CC(C)C)C(=O)N[C@@H](CO)C(=O)N[C@@H]([C@@H](C)O)C(=O)N1)C(C)C)C(=O)NCC(=O)N[C@@H](Cc1ccccc1)C(=O)NCC(=O)N1CCC[C@H]1C(=O)N[C@@H](CCC(=O)O)C(=O)N[C@H](C(=O)N1CCC[C@H]1C(N)=O)[C@@H](C)O [pCT] (H-CSNLSTCVLSAYWRNLNNFHRFSGMGFGPETP-NH2; disulfide 1-7) | 35 ± 5% | 0.0794 nM | 166 ± 16% | 0.603 nM | 113 ± 5% | 0.0398 nM | 107 ± 9% | 0.0316 nM | 107 ± 5% | 0.0501 nM |
| CC(C)C[C@H](NC(=O)[C@H](CCCCN)NC(=O)CNC(=O)[C@H](CC(C)C)NC(=O)[C@@H](NC(=O)[C@@H]1CSSC[C@H](N)C(=O)N[C@@H](CO)C(=O)N[C@@H](CC(N)=O)C(=O)N[C@@H](CC(C)C)C(=O)N[C@@H](CO)C(=O)N[C@@H]([C@@H](C)O)C(=O)N1)C(C)C)C(=O)N[C@@H](CO)C(=O)N[C@@H](CCC(N)=O)C(=O)N[C@@H](CCC(=O)O)C(=O)N[C@@H](CC(C)C)C(=O)N[C@@H](Cc1c[nH]cn1)C(=O)N[C@@H](CCCCN)C(=O)N[C@@H](CC(C)C)C(=O)N[C@@H](CCC(N)=O)C(=O)N[C@H](C(=O)N[C@@H](Cc1ccc(O)cc1)C(=O)N1CCC[C@H]1C(=O)N[C@@H](CCCNC(=N)N)C(=O)N[C@H](C(=O)N[C@@H](CC(N)=O)C(=O)N[C@H](C(=O)NCC(=O)N[C@@H](CO)C(=O)NCC(=O)N[C@H](C(=O)N1CCC[C@H]1C(N)=O)[C@@H](C)O)[C@@H](C)O)[C@@H](C)O)[C@@H](C)O [sCT] | 28 ± 2% | – | 102 ± 7% | – | 107 ± 14% | – | 116 ± 12% | – | 112 ± 11% | – |

— paper PMC5908784, “Extracellular loops 2 and 3 of the calcitonin receptor selectively modify agonist binding and efficacy” (Biochemical Pharmacology, 2018)
